Assays:
[1] = test system: Arachidonic Acid (A.A.) Induced Topical Inflammation of the Mouse Ear; experiment: Arachidonic acid induced topical inflammation of the mouse ear; format: in vivo; conditions: A.A. 25.0 ug; 50.0 ug/ear
[2] = test system: Intraperitoneally Administered Phenylquinone; experiment: Phenylquinone Assay for Analgesia (writhing); format: in vivo, mice; conditions: for Mean No. Responses ± S.E.M.: phenylquinone 2.0 mg/kg
Procedure: d. Phenylquinone Assay for Analgesia
Test compound is injected subcutaneously into mice. After 30 minutes, phenylquinone is injected intraperitoneally to cause pain as indicated by writhing.
Test compound was administered subcutaneously in sesame oil at concentrations up to 5 mg per ml depending on the test compound dosage protocol. The highest dose was 50 mg per Kg. Control groups received sesame oil subcutaneously.

sea urchin sperm = experiment: Sperm Motility Assay; format: cell-based; conditions: 16 microgram/ml (10^-5 m)
Procedure: Male sea urchins are induced to spawn by injection of 0.5M KCl into the coelomic cavity. Sperm is collected via a pasteur pipette and stored in a test tube on ice. One drop of undiluted sperm is added to 25 ml of filtered fresh seawater, then 1.0 ml volumes of this solution are immediately added to test tubes containing 10 microliter test solution. Aliquots of sperm from each tube are observed microscopically for motility at a time two minutes after addition of sperm to test solution.
The vheicle or carrier for the compounds used in the inflammatory and analgesic assays was as follows; For the mouse ear inflammatory assay, the vehicle was acetone. Controls received 25 microliters of acetone. Test compounds were applied to the experimental animals in 25 microliter volumes. For the sperm motility and fertilized sea urchin egg assays, the compounds were dissolved in 10 microliters undenatured ethanol.

[3] = Toxicity of single intraperitoneal doses; format: in vivo, female B6D2F1 mice
Procedure: The toxicity of single intraperitoneal (ip) doses of Compound I in female B6D2F1 mice were evaluated. Doses of up to 150 mg/kg produced no lethality but signs of CNS toxicity were evident at doses greater than or equal to 77 mg/kg.

[4] = test system: M5076 reticulum cell sarcoma; experiment: Activity in mice bearing ip M5076 reticulum cell sarcoma; format: in vivo, female B6D2F1 mice
Procedure: Compound I was also evaluated for activity against solid tumors as follows:
One-half ml of a 10 percent (v:v) brei of tumor cells prepared from solid B16 melanoma or M5076 reticulum cell sarcoma was implanted ip in female B6D2F1 mice which were randomized to treatment groups of 8 animals each. Treatment was initiated 24 hours after tumer inoculation and was continued daily for 10 days (cisplatin was administered q4Dx4 on Days 1, 5, 9 and 13). Mice were monitored daily for 60 days, and the median day of death was determined compared to three groups of untreated controls to provide percent increase in lifespan (ILS). ILS values of greater than or equal to 50 percent represent biologically significant antitumor effects. Cisplatin was curative in M5076 with 6/8 tumor-free survivors on Day 60 at the top dose level.

[5] = Side effects and mortality, intraperitoneal administration to mice; format: in vivo; conditions: for Mortality: on day after administration
Procedure: Doses up to 50 mg/kg administered intraperitoneally to mice have no effect. […] Mortality at 100 mg/kg=2/10 on day after administration, at 200 mg/kg=2/4 also on day after administration.

[6] = test system: PMA induced swelling of the mouse ear; experiment: Anti-Inflammatory Assay (systemic administration); format: in vivo, male Swiss Webster mice
Procedure: Anti-Inflammatory Assay (systemic administration)
2 ug PMA was applied in 25 ul of acetone to the inner surface of the left ear of male Swiss Webster mice (4 to 6 weeks old), the right ear is treated with acetone only. […] 200 minutes after PMA treatment, the mice were killed by cervical dislocation and both ears were cut off, punched with a #4 cork borer and weighed. The swelling induced by PMA was calculated as the increase in the weight of the left ear minus the right ear. The percent inhibition of edema was calculated as control-drug/control×100. […] ED50 values were estimated by the method of Litchfield and Wilcoxon.

[7] = test system: PMA induced swelling of the mouse ear; experiment: Anti-Inflammatory Assay (topical administration); format: in vivo, mice
Procedure: Anti-Inflammatory (topical administration)
2 ug PMA was applied in 25 ul of acetone of the inner surface of the left ear, the right ear is treated with solvent only. […] 200 minutes after PMA treatment, the mice were killed by cervical dislocation and both ears were cut off, punched with a #4 cork borer and weighed. The swelling induced by PMA was calculated as the mean increase in the weight of the left ear minus the right ear. The pecent inhibition of edema was calculated as control-drug/control×100. […] ED50 values were estimated by the method of Litchfield and Wilcoxon.

[8] = 100 mg/kg and above intraperitoneally

CC(C)=C[C@H]1C[C@H](C)[C@H]2CC[C@H](C)c3c(O[C@@H]4OC[C@@H](O)[C@H](O)[C@H]4O)c(O)c(C)c1c32 [Compound I, pseudopterosin A]
Ear Weight Mean ± S.E.M. [1]: 13.33 ± 0.38 mg | Mean No. Responses ± S.E.M. ([2]; 3.1 mg/kg): 8.55 ± 1.38 | Mean No. Responses ± S.E.M. ([2]; 6.3 mg/kg): 5.87 ± 1.24 | Mean No. Responses ± S.E.M. ([2]; 12.5 mg/kg): 5.87 ± 0.77 | Mean No. Responses ± S.E.M. ([2]; 25.0 mg/kg): 1.80 ± 1.31 | Mean No. Responses ± S.E.M. ([2]; 50.0 mg/kg): 0 | analgesia against chemically induced pain ([2]; mouse, in vivo): provides analgesia | Analgesic Activity ([2]; summary): Active | inhibition of sperm motility (sea urchin sperm): totally inhibits | dose at which signs of CNS toxicity were evident ([3]; single ip dose): greater than or equal to 77 mg/kg | Symptoms of CNS toxicity ([3]; single ip doses >= 77 mg/kg): hypersensitivity to external stimuli and shivering | lethality ([3]; single ip doses of up to 150 mg/kg): no lethality | Increase to Lifespan ([4]; 8.64 mg/kg ip): -2% | Median Survival Time ([4]; 8.64 mg/kg ip): 20.5 days | Weight Change on Day 9 ([4]; 8.64 mg/kg ip): +0.1 gm | Increase to Lifespan ([4]; 14.4 mg/kg ip): 0% | Median Survival Time ([4]; 14.4 mg/kg ip): 21 days | Weight Change on Day 9 ([4]; 14.4 mg/kg ip): +0.2 gm | Increase to Lifespan ([4]; 24 mg/kg ip): 0% | Median Survival Time ([4]; 24 mg/kg ip): 21 days | Weight Change on Day 9 ([4]; 24 mg/kg ip): +0.6 gm | Increase to Lifespan ([4]; 40 mg/kg ip): -2% | Median Survival Time ([4]; 40 mg/kg ip): 20.5 days | Weight Change on Day 9 ([4]; 40 mg/kg ip): -1.1 gm | Increase to Lifespan ([4]; 66.7 mg/kg ip): 2% | Median Survival Time ([4]; 66.7 mg/kg ip): 21.5 days | Weight Change on Day 9 ([4]; 66.7 mg/kg ip): -2.9 gm | antitumor activity ([4]; M5076 reticulum cell sarcoma): did not demonstrate significant antitumor activity | return to normal activity [5, 8]: ≤ 30 min | side effects [5, 8]: mild excitation and writhing in some animals | Mortality ([5]; 100 mg/kg): 2/10 | Mortality ([5]; 200 mg/kg): 2/4 | side effects ([5]; up to 50 mg/kg intraperitoneally): no effect | % Inhibition (edema) ([6]; 6.25 mg/kg): 0% | % Inhibition (edema) ([6]; 12.5 mg/kg): 24.4% | % Inhibition (edema) ([6]; 25 mg/kg): 43.8% | % Inhibition (edema) ([6]; 50 mg/kg): 46.5% | % Inhibition (edema) ([6]; 100 mg/kg): 90.4% | % Inhibition (edema) ([7]; 6.25 ug/ear): 28.8% | % Inhibition (edema) ([7]; 12.5 ug/ear): 78.3% | % Inhibition (edema) ([7]; 25 ug/ear): 89.5% | % Inhibition (edema) ([7]; 50 ug/ear): 96.0% | ED50 ([7]; 50% inhibition of inflammation, n = 10 mice/dose): 8.3 ug/ear

From patent US4849410A, “Pseudopterosin and synthetic derivatives thereof” (The Regents of the University of California, priority 1987, dated 1989)
